Assay results: publication PMC5078025, “Necrosis-inducing peptide has the beneficial effect on killing tumor cells through neuropilin (NRP-1) targeting” (Oncotarget, 2016)
Bridge positions count the residues as written; N and C are the ends. Ends that are not written are not given here.

Test system: CT26 cells
Assay: XTT cell viability / killing activity in CT26 cells
Assay type: cell-based
Details: CT26 cells in vitro, TU:MTDs 0 ~ 20 μM, 30 minutes
Procedure: Figure 1 Identification of TU17:MTD as a tumor targeting peptide (A) Schematic diagram of the fusion peptides consisting of the tumor-homing motif, linker, and mitochondrial targeting domain (MTD). (B) Tumors were generated over 2 weeks after s.c. injection of CT26 cells into the backs of BALB/c mice. When tumor volumes reached palpable size, the indicated TU:MTDs (100 μl of 1 mM TU:MTDs) or PBS were administrated i.v. twice or three times. […] Arrows indicate the points of peptide injection. P values < 0.02 (control group vs TU17:MTD at day 5, 6, 7, 8, and 9) (C) HCT116, HeLa, A549, MCF-7, PC3, and BJAB cells were treated with TU17:MTD (0 ~ 20 μM) for 30 minutes, and cell viability was monitored using XTT assays. *P < 0.05 (D) Primary splenocytes and macrophages were treated with TU17:MTD (0 ~ 20 μM) for 30 minutes, and cell viability was monitored by XTT assay. *P < 0.05 (E) CT26 cells were treated with R8:MTD, TU17:MTD, TU17-2:MTD or TU17:MTD^4A (0 ~ 40 μM) for 4 hours, and cell viability was monitored by XTT assay. Results in C to E are expressed as means ± SD (triplicates), and are representative of at least two independent experiments. P values are for experimental groups versus controls and were calculated using Dunnett's t-test. *P < 0.05.
Figure 5 Anti-NRP-1 antibody blocks TU17:MTD-induced necrosis (A) CT26 cells (2 × 10^4 cells/cm^2) were treated with TU17:MTD-FAM (500 nM) peptide or TU17^mut:MTD (500 nM) peptide. […] The viability was measured by using the XTT assay. *P < 0.05, **P < 0.01. […] The percentage of FAM-positive cells (%) were determined (n = over 200 cells). *P < 0.05, ***P < 0.001.
Cells were cultured in 96 well plates (2 × 10^5) overnight and treated with TU:MTDs. Cell viabilities were assessed using a XTT-based colorimetric assay kit, according to the manufacturer's instructions. […]
Supplementary FigureS1: Killing activity of TU:MTDs in CT26 cells. CT26 cells were treated with TU:MTDs (0 ~ 20 μM) for 30 minutes, and cell viability was monitored using XTT assays. […]

Sequence: CNGRCVSGCAGRCGGKLLNLISKLF [TU2:MTD, MTD peptide fused with tumor-homing motif, linear]
- morphological features of necrosis: induced the typical morphological features of necrosis

Sequence: KLLNLISKLFCRGDKRLYDC (disulfide 11-20 (inferred)) [TU11:MTD]
- morphological features of necrosis: induced the typical morphological features of necrosis
